Reference: US20030032651A1 (priority 2001, published 2003)

How the values were obtained:
[1] = Rat hindpaw withdrawal latency (HWL) to mechanical stimulation (Randall Selitto Test); assay type: in vivo; settings: Day 14, i.t. every 12 hrs, morphine 8 μg rotated with nociceptin 10 nmol every 2 days
[2] = Development of tolerance to intrathecal analgesia in rat HWL study (thermal and mechanical); assay type: in vivo; settings: drug alone i.t. every 12 hrs
[3] = Rat hindpaw withdrawal latency (HWL) to thermal stimulation (hot-plate test, 52° C.); assay type: in vivo; settings: Day 6, i.t. every 12 hrs: morphine 8 μg, or rotated with nociceptin 10 nmol every 2 days
[4] = after parenteral injection; cited from earlier work

For `CN1CC[C@]23c4c5ccc(O)c4O[C@H]2[C@@H](O)C=C[C@H]3[C@H]1C5` [Morphine, morphine], the “% Changes of HWL to Mechanical Stimulation 10 Minutes After Intrathecal Injection, Left” value [1] was −0.84 ± 1.61%, the “day by which total/complete tolerance exists” value [2] was no more than 6 days and the “% Changes of HWL to Thermal Stimulation 10 Minutes After Intrathecal Injection, Left” value ([3]; left hindpaw) was −1.30 ± 2.36%. For the same compound, the “% Changes of HWL to Thermal Stimulation 10 Minutes After Intrathecal Injection, Right” value ([3]; right hindpaw) was 0.51 ± 1.61%.
For `O=C1NCN(c2ccccc2)C12CCN([C@H]1CC[C@@H]3CCCc4cccc1c43)CC2` [RO 64-6198, (1S,3aS)8-(2,3,3a,4,5,6-hexahydro-1H-phenalen-1-yl)-1-phenyl-1,3,8-triaza-spiro[4,5]decan-4-one], the brain penetration [4] is given as “high degree of brain penetration”.
